For this assay, the target named is Acetyl-CoA carboxylase 1 (Homo sapiens, UniProt Q13085). Put plainly: Inhibition of full length human recombinant ACC1 expressed in baculovirus infected Sf9 cells incubated for 18 hrs in presence of ATP by envision fluorescence reader analysis.

A word on the IC50: it is the concentration needed to halve the response being measured. For `COc1cc(C(=O)N2CCC3(CC2)CC(=O)c2nc(C(C)(C)C)sc2C3)c2[nH]ccc2c1Cl`, the 50% inhibitory concentration (IC50) was 1.3 nM.

Source of the values: ChEMBL document CHEMBL5335861, “Novel ACC Inhibitors for Treating Acne” (ACS Med Chem Lett, 2024).
